Assays:
[1] = target: C-Raf kinase (SEQ. ID NO: 3) (Homo sapiens (Human), UniProt P04049, Y340D/Y341D); assay: Biochemical Assay for C-Raf (1); settings: Table J, biochemical assay (1); read-out: CRAF (1)
How it was run: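 IC50 values come from a four-parameter fit of percent inhibition, using the reaction rate over 4–5 h of a 6 h continuous 340 nm read at 30 °C. The enzyme mix was C-Raf 0.43 nM, MEK substrate 30.1 nM and ATP 1 mM, in a PK/LDH NADH-coupled format in Tris pH 7.5 with 1% DMSO.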

[2] = target: A-Raf kinase (SEQ. ID No: 1) (Homo sapiens (Human), UniProt P10398, Y301D/Y302D); assay: Biochemical Assay for A-Raf (1); settings: Table J, biochemical assay (1); read-out: ARAF (1)
Sequence of A-Raf kinase (SEQ. ID No: 1) (P10398 other isoform, or with tags, fused parts or gaps Y301D (already in the parent)/Y302D (already in the parent)): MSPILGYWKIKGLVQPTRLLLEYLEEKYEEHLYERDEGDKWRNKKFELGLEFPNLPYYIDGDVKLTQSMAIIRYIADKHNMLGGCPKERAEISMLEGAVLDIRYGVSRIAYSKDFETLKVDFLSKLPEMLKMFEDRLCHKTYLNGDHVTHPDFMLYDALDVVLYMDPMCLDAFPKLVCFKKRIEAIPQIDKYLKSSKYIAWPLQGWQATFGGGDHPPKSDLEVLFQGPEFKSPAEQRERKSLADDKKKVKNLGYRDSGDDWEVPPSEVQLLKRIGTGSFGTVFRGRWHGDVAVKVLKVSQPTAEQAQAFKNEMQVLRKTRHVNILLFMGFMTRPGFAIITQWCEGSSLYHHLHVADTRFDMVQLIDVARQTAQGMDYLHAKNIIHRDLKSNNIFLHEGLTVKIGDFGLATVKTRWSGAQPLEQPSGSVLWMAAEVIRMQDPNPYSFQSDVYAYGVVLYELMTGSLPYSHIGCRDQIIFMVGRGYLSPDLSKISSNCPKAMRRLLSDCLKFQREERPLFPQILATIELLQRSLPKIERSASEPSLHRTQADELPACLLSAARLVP
How it was run: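 IC50 values were derived by four-parameter sigmoidal fitting of percent inhibition, calculated from reaction rates over the 4–5 h window. Absorbance at 340 nm was tracked for 6 h at 30 °C via coupled PK/LDH NADH depletion. Conditions: 1 mM ATP, 30.1 nM MEK substrate, 5.55 nM A-Raf (Y301D/Y302D), Tris pH 7.5, 1% DMSO.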

[3] = target: B-Raf kinase (SEQ. ID NO: 2) (Homo sapiens (Human), UniProt P15056); assay: Biochemical Assay for B-Raf (1); settings: Table J, biochemical assay (1); read-out: BRAF (1)
Sequence of B-Raf kinase (SEQ. ID NO: 2) (P15056 416-766): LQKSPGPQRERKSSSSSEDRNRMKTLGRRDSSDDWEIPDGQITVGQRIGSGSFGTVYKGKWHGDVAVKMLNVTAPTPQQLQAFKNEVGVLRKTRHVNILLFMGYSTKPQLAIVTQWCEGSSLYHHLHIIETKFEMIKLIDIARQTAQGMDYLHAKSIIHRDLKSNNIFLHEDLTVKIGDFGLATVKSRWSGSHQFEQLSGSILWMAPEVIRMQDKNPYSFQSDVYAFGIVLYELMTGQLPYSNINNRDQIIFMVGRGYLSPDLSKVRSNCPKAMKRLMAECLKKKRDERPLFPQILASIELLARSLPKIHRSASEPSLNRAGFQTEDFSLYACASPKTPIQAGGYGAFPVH
How it was run: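 IC50 derived by four-parameter sigmoidal fit of percent inhibition, normalised to uninhibited and reference-inhibitor controls, using reaction rates over 4–5 h. Coupled spectrophotometric readout (NADH loss at 340 nm, 6 h, 30° C.); 1 mM ATP, 30.1 nM MEK, 0.13 nM B-Raf, pH 7.5 Tris buffer, 1% DMSO.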

[4] = target: B-Raf (V600E) (SEQ. ID NO: 4) kinase (Homo sapiens (Human), UniProt P15056, V600E); assay: Biochemical Assay for B-Raf (V600E) (1); settings: Table J, BRAF V600E, biochemical assay (1); read-out: BRAF VE (1)
Sequence of B-Raf (V600E) (SEQ. ID NO: 4) kinase (P15056 416-766 V600E): as the sequence (P15056 416-766) above, with V185E counted along it
How it was run: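 Serially diluted compounds tested against 0.03 nM enzyme with 30.1 nM MEK substrate and 1 mM ATP (Tris pH 7.5, 15 mM MgCl2), ATP use coupled to NADH loss via PK/LDH. A340 monitored continuously 6 h, 30 °C; IC50 fitted (four-parameter) from the 3–4 h rate versus no-compound and known-inhibitor controls.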

Sequence of C-Raf kinase (SEQ. ID NO: 3) (P04049 307-648 Y340D/Y341D): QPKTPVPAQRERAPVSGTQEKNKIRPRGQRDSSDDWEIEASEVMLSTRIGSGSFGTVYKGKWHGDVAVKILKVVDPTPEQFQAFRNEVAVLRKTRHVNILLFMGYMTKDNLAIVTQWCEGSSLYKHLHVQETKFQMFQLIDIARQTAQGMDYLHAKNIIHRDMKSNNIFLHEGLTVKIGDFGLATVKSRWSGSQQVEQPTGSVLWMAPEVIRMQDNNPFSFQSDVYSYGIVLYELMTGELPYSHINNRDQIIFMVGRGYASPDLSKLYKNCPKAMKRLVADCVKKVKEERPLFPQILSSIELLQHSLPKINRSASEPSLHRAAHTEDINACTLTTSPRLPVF

Row | SMILES | IC50 [1] | IC50 [2] | IC50 [3] | IC50 [4]
1 | COC(=O)Nc1cc(-c2cccc(-c3cc(NC(=O)c4ccnc(C(C)(C)F)c4)cnc3C)c2)ncn1 [Example 404] | ≤ 100 nM | 1000 to 10000 nM | 100 to 500 nM | ≤ 100 nM
2 | COC(=O)Nc1cc(-c2cncc(-c3cc(NC(=O)c4ccnc(C5(C#N)CC5)c4)ccc3C)c2)ncn1 [Example 405] | ≤ 100 nM | 1000 to 10000 nM | ≤ 100 nM | ≤ 100 nM
3 | Cc1ncc(NC(=O)c2ccnc(C(C)(C)F)c2)cc1-c1cncc(-c2cc(NC(=O)C3CC3)ncn2)c1 [Example 406] | ≤ 100 nM | 500 to 1000 nM | ≤ 100 nM | ≤ 100 nM
4 | Cc1ncc(NC(=O)c2ccnc(C(C)(C)C#N)c2)cc1-c1cccc(-c2cnc3ccccn23)c1 [Example 407] | 100 to 500 nM | 1000 to 10000 nM | 500 to 1000 nM | 100 to 500 nM
5 | CNC(=O)c1cc(-c2cncc(-c3cc(NC(=O)c4ccnc(C(C)(C)F)c4)c(F)cc3C)c2)ccn1 [Example 408] | ≤ 100 nM | 1000 to 10000 nM | 100 to 500 nM | ≤ 100 nM
6 | COC(=O)Nc1cc(-c2cnnc(-c3cc(NC(=O)c4cn(C(C)C)nn4)ccc3C)c2)ccn1 [Example 409] | 100 to 500 nM | 1000 to 10000 nM | 100 to 500 nM | 500 to 1000 nM
7 | Cc1ncc(NC(=O)c2ccnc(C(C)(C)C#N)c2)cc1-c1cncc(-c2cc(NC(=O)C3CC3)ncn2)c1 [Example 410] | ≤ 100 nM | 1000 to 10000 nM | ≤ 100 nM | ≤ 100 nM
8 | Cc1ccc(NC(=O)c2ccnc(C(C)(C)F)c2)cc1-c1cncc(-c2cc(N)ncn2)c1 [Example 411] | ≤ 100 nM | 1000 to 10000 nM | ≤ 100 nM | ≤ 100 nM
9 | Cc1ccc(NC(=O)c2cn(C(C)C)nn2)cc1-c1cncc(-c2cc(NC(=O)C3CC3)ncn2)c1 [Example 412] | ≤ 100 nM | 100 to 500 nM | ≤ 100 nM | ≤ 100 nM
10 | CNC(=O)c1cc(-c2cncc(-c3cc(NC(=O)c4ccnc(C(C)(C)F)c4)ccc3C)c2)ccn1 [Example 413] | ≤ 100 nM | 1000 to 10000 nM | ≤ 100 nM | ≤ 100 nM
11 | COC(=O)Nc1cc(-c2cncc(-c3cc(NC(=O)c4ccnc(C(C)(C)C#N)c4)ccc3C)c2)ncn1 [Example 414] | ≤ 100 nM | 1000 to 10000 nM | ≤ 100 nM | ≤ 100 nM
12 | COC(=O)Nc1cc(-c2cccc(-c3cc(NC(=O)Cn4cc(C(C)C)nn4)cnc3C)c2)ccn1 [Example 415] | 100 to 500 nM | 1000 to 10000 nM | 500 to 1000 nM | 1000 to 10000 nM
13 | COC(=O)Nc1cc(-c2cc(-c3cc(NC(=O)c4ccnc(C(C)(C)F)c4)ccc3C)nc(C)n2)ccn1 [Example 416] | ≤ 100 nM | 1000 to 10000 nM | ≤ 100 nM | ≤ 100 nM
14 | Cc1ccc(NC(=O)c2ccnc(C(C)(C)F)c2)cc1-c1cncc(-c2ccnc(NC(=O)C3CC3)c2)c1 [Example 417] | ≤ 100 nM | 100 to 500 nM | ≤ 100 nM | ≤ 100 nM
15 | Cc1cc(F)c(NC(=O)c2ccnc(C(C)(C)C#N)c2)cc1-c1cncc(-c2ccnc(NC(=O)C3CC3)c2)c1 [Example 418] | ≤ 100 nM | 500 to 1000 nM | ≤ 100 nM | ≤ 100 nM
16 | Cc1ccc(NC(=O)c2ccnc(C(C)(F)F)c2)cc1-c1cncc(-c2cc(NC(=O)C3CC3)ncn2)c1 [Example 419] | ≤ 100 nM | 500 to 1000 nM | ≤ 100 nM | ≤ 100 nM
17 | Cc1ccc(NC(=O)c2ccnc(C(C)(C)C#N)c2)cc1-c1cncc(-c2cc(NC(=O)C(C)C)ncn2)c1 [Example 420] | ≤ 100 nM | 1000 to 10000 nM | ≤ 100 nM | ≤ 100 nM

Row | SMILES | IC50 [1] | IC50 [2] | IC50 [3] | IC50 [4]
18 | Cc1ccc(NC(=O)c2cc(C3CC3)on2)cc1-c1cncc(-c2cc(NC(=O)C3CC3)ncn2)c1 [Example 421] | ≤ 100 nM | 1000 to 10000 nM | ≤ 100 nM | ≤ 100 nM
19 | Cc1ccc(NC(=O)c2ccnc(C(C)(C)C#N)c2)cc1-c1cncc(-c2cc(N)ncn2)c1 [Example 422] | ≤ 100 nM | 1000 to 10000 nM | 100 to 500 nM | ≤ 100 nM
20 | Cc1cc(F)c(NC(=O)c2ccnc(C(C)(C)F)c2)cc1-c1cncc(-c2cc(NC(=O)C3CC3)ncn2)c1 [Example 423] | ≤ 100 nM | 1000 to 10000 nM | ≤ 100 nM | ≤ 100 nM
21 | Cc1cc(F)c(NC(=O)c2ccnc(C(C)(C)C#N)c2)cc1-c1cncc(-c2cc(NC(=O)C3CC3)ncn2)c1 [Example 424] | ≤ 100 nM | 500 to 1000 nM | ≤ 100 nM | ≤ 100 nM
22 | COC(=O)Nc1cc(-c2cncc(-c3cc(NC(=O)c4ccnc(C(C)(C)F)c4)ccc3C)c2)ncn1 [Example 425] | ≤ 100 nM | 1000 to 10000 nM | ≤ 100 nM | ≤ 100 nM
23 | CNC(=O)c1cc(-c2nccc(-c3cc(NC(=O)c4ccnc(C(C)(C)F)c4)c(F)cc3C)n2)ccn1 [Example 427] | ≤ 100 nM | 1000 to 10000 nM | 100 to 500 nM | ≤ 100 nM
24 | CNC(=O)c1cc(-c2cc(-c3cc(NC(=O)c4ccnc(C(C)(C)F)c4)ccc3C)nc(C)n2)ccn1 [Example 428] | 100 to 500 nM | 1000 to 10000 nM | 100 to 500 nM | ≤ 100 nM
25 | Cc1ccc(NC(=O)c2ccnc(C(F)F)c2)cc1-c1cncc(-c2cc(NC(=O)C3CC3)ncn2)c1 [Example 429] | ≤ 100 nM | 100 to 500 nM | ≤ 100 nM | ≤ 100 nM
26 | Cc1ccc(NC(=O)c2cnn(C3CC3)c2)cc1-c1cncc(-c2cc(NC(=O)C3CC3)ncn2)c1 [Example 430] | ≤ 100 nM | 500 to 1000 nM | ≤ 100 nM | ≤ 100 nM
27 | Cc1ccc(NC(=O)c2cc(C(C)(C)C)on2)cc1-c1cncc(-c2cc(NC(=O)C3CC3)ncn2)c1 [Example 431] | ≤ 100 nM | 100 to 500 nM | ≤ 100 nM | ≤ 100 nM
28 | Cc1ccc(NC(=O)c2ccnc(C(C)(C)F)c2)cc1-c1cncc(-c2ccnc3c2CC(=O)N3)c1 [Example 432] | ≤ 100 nM | 1000 to 10000 nM | ≤ 100 nM | ≤ 100 nM
29 | Cc1ncc(NC(=O)c2ccnc(C(C)(C)F)c2)cc1-c1cncc(-c2ccnc(NC(=O)C3CC3)c2)c1 [Example 433] | ≤ 100 nM | 1000 to 10000 nM | ≤ 100 nM | ≤ 100 nM
30 | Cc1ccc(NC(=O)c2ccnc(C(C)C)c2)cc1-c1cncc(-c2cc(NC(=O)C3CC3)ncn2)c1 [Example 434] | ≤ 100 nM | 100 to 500 nM | ≤ 100 nM | ≤ 100 nM
31 | COC(=O)Nc1cc(-c2cncc(-c3cc(NC(=O)c4ccnc(C(C)(C)F)c4)ccc3C)c2)ccn1 [Example 435] | ≤ 100 nM | 1000 to 10000 nM | ≤ 100 nM | ≤ 100 nM
32 | Cc1ccc(NC(=O)c2cc(C3CC3)n(C)n2)cc1-c1nccc(-c2ccnc(NC(=O)C3CC3)c2)n1 [Example 436] | ≤ 100 nM | 500 to 1000 nM | ≤ 100 nM | ≤ 100 nM
33 | CNC(=O)c1cc(-c2cc(-c3cc(NC(=O)c4ccnc(C(C)(C)C#N)c4)ccc3OC)ccn2)ccn1 [Example 437] | ≤ 100 nM | 1000 to 10000 nM | 100 to 500 nM | ≤ 100 nM
34 | COc1ccc(NC(=O)c2ccnc(C(C)(C)C#N)c2)cc1-c1cccc(-c2cc(NC(=O)C3CC3)ncn2)c1 [Example 438] | ≤ 100 nM | 1000 to 10000 nM | ≤ 100 nM | ≤ 100 nM

From patent US12319655B2, “RAF kinase inhibitors and methods of use thereof” (Deciphera Pharmaceuticals, LLC, priority 2021, dated 2025)
